This is an account of results in US12435072B2, “Compounds” (Vicore Pharma AB, priority 2019, dated 2025).

Data set [1] concerns the target T1, CYP2D6 (Homo sapiens, UniProt P10635).
T1 construct: incubated with human liver microsomes; tissue Eurofins ITEMG232; host or cells: human liver microsomes
In words: CYP inhibition in human liver microsomes, CYP2D6. To be noted: probe dextromethorphan, substrate dextromethorphan, read-out: CYP2D6 Inh %. It counts as in vitro ADME. The method, then:
(§1) The following substrates were used: CYP1A phenacetin, CYP2B6 bupropion, CYP2C8 paclitaxel and amodiaquine, CYP2C9 diclofenac, CYP2C19 omeprazole, CYP2D6 dextromethorphan, CYP3A midazolam and testosterone. At the end of the incubation, the formation of metabolite was monitored by HPLC-MS/MS as the peak area response.
Background: Microsomes from liver hold many membrane-bound enzymes, among them those of drug oxidation.

Data set [2] concerns the target T2, CYP2C19 (Homo sapiens, UniProt P33261).
T2 construct: incubated with human liver microsomes; tissue Eurofins ITEMG232; host or cells: human liver microsomes
In words: CYP inhibition in human liver microsomes, CYP2C19. It counts as in vitro ADME. To be noted: substrate omeprazole; for inhibition at 10 µM: probe omeprazole, read-out: CYP2C19 Inh %. The protocol:
as §1

Data set [3] concerns CYP3A4&5. In words: CYP inhibition in human liver microsomes, CYP3A4&5 (testosterone). Conditions: probe testosterone, substrate testosterone, read-out: CYP3A4&5 testosterone Inh %. It counts as in vitro ADME. The protocol:
as §1

Data set [4] concerns the target T3, CYP2C9 (Homo sapiens, UniProt P11712). Briefly: CYP inhibition in human liver microsomes, CYP2C9. It counts as in vitro ADME. More on the design: incubated with human liver microsomes; tissue Eurofins ITEMG232; host or cells: human liver microsomes. To be noted: substrate diclofenac; for inhibition at 10 µM: probe diclofenac, read-out: CYP2C9 Inh %. The protocol:
as §1

The target of data set [5] is T4, human recombinant AT1 receptor (Homo sapiens, UniProt P30556).
T4 construct: purchased Eurofins ITEM24
T4 sequence (P30556 1-359): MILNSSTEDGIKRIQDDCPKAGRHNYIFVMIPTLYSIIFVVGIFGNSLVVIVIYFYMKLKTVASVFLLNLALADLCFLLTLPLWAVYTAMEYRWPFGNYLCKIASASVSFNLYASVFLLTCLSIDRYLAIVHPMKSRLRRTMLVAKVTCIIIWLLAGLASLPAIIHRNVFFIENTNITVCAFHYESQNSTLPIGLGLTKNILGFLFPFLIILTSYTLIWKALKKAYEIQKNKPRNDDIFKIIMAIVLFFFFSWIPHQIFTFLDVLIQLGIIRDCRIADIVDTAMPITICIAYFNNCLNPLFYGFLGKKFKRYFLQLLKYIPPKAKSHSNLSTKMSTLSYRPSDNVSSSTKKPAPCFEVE
In words: Binding to AT1 receptor, radiometric scintillation assay (Eurofins). Conditions: ligand 125I(sar1,Ile8)-AT-II, tested at 1 and 10 μM. The protocol: (§2) Compounds were evaluated for binding to the human recombinant AT2 and AT1 receptor according to Eurofins protocol ITEM26 and ITEM24 using a radiometric scintillation assay.

Data set [6] has as its target T5, CYP1A (Homo sapiens, UniProt P05177).
T5 construct: incubated with human liver microsomes; tissue Eurofins ITEMG232; host or cells: human liver microsomes
T5 sequence (P05177 1-516): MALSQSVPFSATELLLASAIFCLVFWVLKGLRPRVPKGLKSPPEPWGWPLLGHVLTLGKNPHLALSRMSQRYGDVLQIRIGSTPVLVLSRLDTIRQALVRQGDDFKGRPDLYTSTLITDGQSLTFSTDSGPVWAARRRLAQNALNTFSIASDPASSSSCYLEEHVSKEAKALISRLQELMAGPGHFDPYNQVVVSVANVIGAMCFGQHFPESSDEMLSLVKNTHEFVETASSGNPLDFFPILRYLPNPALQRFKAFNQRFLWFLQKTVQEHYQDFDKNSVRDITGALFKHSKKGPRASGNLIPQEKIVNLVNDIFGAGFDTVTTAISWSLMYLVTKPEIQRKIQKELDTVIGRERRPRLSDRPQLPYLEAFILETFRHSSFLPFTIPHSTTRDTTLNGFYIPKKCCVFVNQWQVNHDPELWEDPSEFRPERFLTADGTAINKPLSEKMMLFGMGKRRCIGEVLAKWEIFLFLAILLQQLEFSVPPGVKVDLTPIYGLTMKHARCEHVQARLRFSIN
In words: CYP inhibition in human liver microsomes, CYP1A. Conditions: probe phenacetin, substrate phenacetin, read-out: CYP1A Inh %. It counts as in vitro ADME. The method, then: as §1

Data set [7] deals with T6, CYP2C8 (Homo sapiens, UniProt P10632).
T6 construct: incubated with human liver microsomes; tissue Eurofins ITEMG232; host or cells: human liver microsomes
T6 sequence (P10632 1-490): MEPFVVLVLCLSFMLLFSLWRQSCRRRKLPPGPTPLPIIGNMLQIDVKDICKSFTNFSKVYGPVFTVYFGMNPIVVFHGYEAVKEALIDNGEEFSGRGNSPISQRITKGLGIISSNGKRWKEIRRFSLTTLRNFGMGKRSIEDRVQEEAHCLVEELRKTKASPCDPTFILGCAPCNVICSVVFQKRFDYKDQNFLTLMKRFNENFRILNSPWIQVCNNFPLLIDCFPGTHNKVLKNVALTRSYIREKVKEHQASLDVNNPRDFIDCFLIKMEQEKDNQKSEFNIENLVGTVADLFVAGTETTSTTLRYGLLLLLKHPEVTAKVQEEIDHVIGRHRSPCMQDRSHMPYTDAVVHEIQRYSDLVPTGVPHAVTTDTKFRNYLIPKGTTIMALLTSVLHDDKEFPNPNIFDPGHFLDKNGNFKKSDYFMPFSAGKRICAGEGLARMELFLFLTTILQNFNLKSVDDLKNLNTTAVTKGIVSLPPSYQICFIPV
Briefly: CYP inhibition in human liver microsomes, CYP2C8. Type of data set: in vitro ADME. To be noted: probe paclitaxel and amodiaquine, substrate paclitaxel and amodiaquine, read-out: CYP2C8 Inh %. The method, then:
as §1

The target of data set [8] is T7, CYP2B6 (Homo sapiens, UniProt P20813).
T7 construct: incubated with human liver microsomes; tissue Eurofins ITEMG232; host or cells: human liver microsomes
T7 sequence (P20813 1-491): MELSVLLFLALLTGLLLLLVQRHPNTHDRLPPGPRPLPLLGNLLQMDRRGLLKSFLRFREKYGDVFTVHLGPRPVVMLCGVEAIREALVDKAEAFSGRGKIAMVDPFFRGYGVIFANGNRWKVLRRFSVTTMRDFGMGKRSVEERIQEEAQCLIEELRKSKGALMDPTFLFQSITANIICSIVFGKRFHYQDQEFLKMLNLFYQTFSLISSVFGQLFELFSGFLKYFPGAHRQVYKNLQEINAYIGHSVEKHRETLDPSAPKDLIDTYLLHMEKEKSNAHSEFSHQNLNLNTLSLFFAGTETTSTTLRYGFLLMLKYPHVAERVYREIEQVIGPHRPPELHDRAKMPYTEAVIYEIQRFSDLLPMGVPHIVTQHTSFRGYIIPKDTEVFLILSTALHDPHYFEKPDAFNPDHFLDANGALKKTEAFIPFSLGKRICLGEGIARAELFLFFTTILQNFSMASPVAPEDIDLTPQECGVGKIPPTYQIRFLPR
Briefly: CYP inhibition in human liver microsomes, CYP2B6. To be noted: probe bupropion, substrate bupropion, read-out: CYP2B6 Inh %. Type of data set: in vitro ADME. The method, then: as §1

For data set [9], the target named is T8, human recombinant AT2 receptor (Homo sapiens, UniProt P50052).
T8 construct: purchased Eurofins ITEM26
T8 sequence (P50052 1-363): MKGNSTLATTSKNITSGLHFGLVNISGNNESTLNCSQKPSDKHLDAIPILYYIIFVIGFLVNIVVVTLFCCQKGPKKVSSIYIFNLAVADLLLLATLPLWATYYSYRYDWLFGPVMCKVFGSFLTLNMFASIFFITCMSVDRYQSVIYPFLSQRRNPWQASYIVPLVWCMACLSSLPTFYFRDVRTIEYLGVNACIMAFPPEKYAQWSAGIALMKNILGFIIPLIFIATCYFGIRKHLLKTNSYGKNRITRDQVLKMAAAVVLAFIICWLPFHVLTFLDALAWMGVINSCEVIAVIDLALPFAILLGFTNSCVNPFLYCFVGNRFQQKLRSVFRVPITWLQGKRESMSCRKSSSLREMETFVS
Briefly: Binding to AT2 receptor, radiometric scintillation assay (Eurofins). To be noted: ligand 125I CGP 42112A, tested at 1, 10, 100 and 1000 nM. The protocol: as §2

For data set [10], the target named is T9, CYP3A4 (Homo sapiens, UniProt P08684). In words: CYP inhibition in human liver microsomes, CYP3A4 (midazolam). It counts as in vitro ADME. More on the design: incubated with human liver microsomes; tissue Eurofins ITEMG232; host or cells: human liver microsomes. Conditions: probe midazolam, substrate midazolam, read-out: CYP3A4 midazolam Inh %. The method, then:
as §1

In data set [11] the target is T9, CYP3A4. Briefly: CYP inhibition found during development of C21, CYP 3A4. It counts as in vitro ADME. Conditions: statement in background.
Data set [12] deals with T3, CYP2C9. Briefly: CYP inhibition found during development of C21, CYP 2C9. To be noted: statement in background. It counts as in vitro ADME.
Data set [13] can be described thus: Metabolic hydrolysis found during development of C21. Type of data set: in vitro ADME. Conditions: statement in background.

T9 sequence (P08684 whole entry): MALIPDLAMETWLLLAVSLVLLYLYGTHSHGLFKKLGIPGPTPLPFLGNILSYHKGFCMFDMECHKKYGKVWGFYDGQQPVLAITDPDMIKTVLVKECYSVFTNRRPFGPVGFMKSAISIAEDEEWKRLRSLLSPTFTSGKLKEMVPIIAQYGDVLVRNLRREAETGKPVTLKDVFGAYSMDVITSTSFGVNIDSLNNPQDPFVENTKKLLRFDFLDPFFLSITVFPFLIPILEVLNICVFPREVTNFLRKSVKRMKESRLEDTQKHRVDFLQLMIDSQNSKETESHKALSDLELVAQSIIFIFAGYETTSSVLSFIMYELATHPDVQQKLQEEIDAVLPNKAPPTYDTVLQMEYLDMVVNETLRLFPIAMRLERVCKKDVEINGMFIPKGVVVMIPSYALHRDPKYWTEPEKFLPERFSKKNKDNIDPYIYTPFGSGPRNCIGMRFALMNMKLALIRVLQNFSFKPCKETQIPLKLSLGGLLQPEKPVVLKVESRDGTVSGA
T3 sequence (P11712 whole entry): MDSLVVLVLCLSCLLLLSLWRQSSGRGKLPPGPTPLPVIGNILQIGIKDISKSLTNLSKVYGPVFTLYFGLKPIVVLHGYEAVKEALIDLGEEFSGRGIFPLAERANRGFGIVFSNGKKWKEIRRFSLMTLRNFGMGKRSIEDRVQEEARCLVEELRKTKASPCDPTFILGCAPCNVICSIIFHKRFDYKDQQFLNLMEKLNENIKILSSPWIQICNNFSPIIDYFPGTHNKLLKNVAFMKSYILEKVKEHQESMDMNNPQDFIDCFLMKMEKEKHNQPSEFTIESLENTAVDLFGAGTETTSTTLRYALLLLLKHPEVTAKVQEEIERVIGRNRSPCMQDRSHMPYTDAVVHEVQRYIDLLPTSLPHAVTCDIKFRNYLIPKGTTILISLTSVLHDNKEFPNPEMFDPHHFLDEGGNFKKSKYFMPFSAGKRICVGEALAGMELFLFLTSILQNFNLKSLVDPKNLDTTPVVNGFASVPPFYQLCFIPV
T2 sequence (P33261 whole entry): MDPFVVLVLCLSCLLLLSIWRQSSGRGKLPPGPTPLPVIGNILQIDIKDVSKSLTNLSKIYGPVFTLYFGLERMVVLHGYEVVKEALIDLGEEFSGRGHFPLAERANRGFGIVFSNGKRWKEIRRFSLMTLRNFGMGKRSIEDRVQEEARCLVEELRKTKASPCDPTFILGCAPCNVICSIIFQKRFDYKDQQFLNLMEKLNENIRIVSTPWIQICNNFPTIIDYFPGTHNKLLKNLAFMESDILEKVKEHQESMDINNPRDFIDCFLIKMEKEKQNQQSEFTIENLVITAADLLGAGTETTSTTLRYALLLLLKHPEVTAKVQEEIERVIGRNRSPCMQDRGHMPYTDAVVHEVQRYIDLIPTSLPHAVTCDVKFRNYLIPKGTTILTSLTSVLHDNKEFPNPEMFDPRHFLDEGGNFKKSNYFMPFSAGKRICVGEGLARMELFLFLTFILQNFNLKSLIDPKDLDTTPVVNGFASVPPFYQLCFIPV
T1 sequence (P10635 whole entry): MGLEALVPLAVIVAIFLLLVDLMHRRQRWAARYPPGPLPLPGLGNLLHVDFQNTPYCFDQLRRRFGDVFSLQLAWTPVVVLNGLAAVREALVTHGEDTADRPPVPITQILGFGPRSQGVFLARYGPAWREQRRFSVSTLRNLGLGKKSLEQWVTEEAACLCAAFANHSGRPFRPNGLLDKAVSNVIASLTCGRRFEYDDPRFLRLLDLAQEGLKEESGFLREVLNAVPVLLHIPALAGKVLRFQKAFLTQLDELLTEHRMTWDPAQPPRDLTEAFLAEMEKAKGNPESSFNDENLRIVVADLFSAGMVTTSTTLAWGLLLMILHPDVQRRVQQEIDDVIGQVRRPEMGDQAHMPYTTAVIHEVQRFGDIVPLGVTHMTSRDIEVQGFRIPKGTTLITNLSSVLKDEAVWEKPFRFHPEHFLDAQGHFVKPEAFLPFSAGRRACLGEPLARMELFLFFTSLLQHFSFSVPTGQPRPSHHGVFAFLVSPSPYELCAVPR

Broadly, the IC50 is the concentration that inhibits the measured activity by half. Turning to `Cc1cn(Cc2ccc(-c3cc(CC(C)C)sc3S(=O)(=O)NC(=O)NCc3ccccn3)cc2)c(C)n1` [Example 11, 3-(3-{p-[(2,4-Dimethyl-1H-imidazol-1-yl)methyl]phenyl}-5-isobutyl-2-thienylsulfonyl)-1-[(2-pyridyl)methyl]urea], the inhibition at 10 µM in [1] is 44%; in data set [2] it was 53%; in data set [3] it was 17%; in [4], 29%; in [6], 5%; in data set [7], 34%. Besides, the values for the inhibition at 10 µM in [8] and in data set [10] were 14% and 22%, respectively. Moreover, the IC50 in data set [5] stood at 18 µM; in data set [9], 0.119 µM.

In the case of `Cc1nccn1Cc1ccc(-c2cc(CC(C)C)sc2S(=O)(=O)NC(=O)NCCc2c[nH]cn2)cc1F` [Example 16, 1-(3-{3-Fluoro-4-[(2-methyl-1H-imidazol-1-yl)methyl]phenyl}-5-isobutyl-2-thienylsulfonyl)-3-[2-(1H-imidazol-4-yl)ethyl]urea], the inhibition at 10 µM in data set [1] is 88%; in data set [2], 91%; in data set [3] it was 58%; in [4], 79%; in [6], 23%; in data set [7] it was 65%. The inhibition at 10 µM turned out to be 88% in data set [8] and 91% in data set [10]. Moreover, the IC50 in data set [5] was 57 µM; in data set [9] it was 0.0074 µM.

Turning to `Cc1nccn1Cc1ccc(-c2cc(CC(C)C)sc2S(=O)(=O)NC(=O)N(C)Cc2ccccn2)cc1F` [Example 17, 3-(3-{3-Fluoro-4-[(2-methyl-1H-imidazol-1-yl)methyl]phenyl}-5-isobutyl-2-thienylsulfonyl)-1-methyl-1-[(2-pyridyl)methyl]urea], the inhibition at 10 µM worked out at 22% in data set [1]; 54% in [2]; 18% in [3]; 48% in data set [4]; 29% in data set [6]; 83% in [7]. For the same compound, the inhibition at 10 µM in data set [8] was found to be 20%; in data set [10], 65%. For the same compound, the IC50 is 58 µM in data set [5] and 0.0095 µM in [9].

`CCCCOC(=O)NS(=O)(=O)c1sc(CC(C)C)cc1-c1ccc(Cn2ccnc2)cc1` [Example C21, N-butyloxycarbonyl-3-(4-imidazol-1-ylmethylphenyl)-5-isobutylthiophene-2-sulfon-amide]: the “CYP2C19 Inh %” value in data set [2] (10 μM) was 96.0%. In data set [11], the “inhibition of CYP 3A4” value is given as “potent inhibitor”. For the same compound, the “CYP2C9 Inh %” value in data set [4] (10 μM) amounted to 99.0%. Besides, in [12], the “inhibition of CYP 2C9” value is “potent inhibitor”. Besides, the metabolic hydrolysis result in data set [13] was “rapidly hydrolysed to an inactive sulfonamide metabolite”.
